Experimental data taken from patent US5854276A, “Substance WF16616, process for production thereof, and use thereof” (Fujisawa Pharmaceutical Co., Ltd., priority 1995, dated 1998).
≈ marks a conversion by molar mass, not a printed value.

Assays:
[1] = system: ICR female mice; test: Toxicity test, intraperitoneal injection in mice; type: in vivo; conditions: 5 mg/kg intraperitoneally once a day for three days
Protocol: WF16616 substance was intraperitoneally injected into each of five 5-week-old ICR female mice at a dose of 5 mg/kg once a day for three days.

[2] = system: Candida albicans No. 7; test: Antifungal activity, microbroth dilution in YNBD medium, Candida albicans No. 7; type: cell-based; conditions: 1×10^4 cfu/100 μl/well, 37° C., 22 hours, 0.5% glucose-containing YNBD, microscopical observation
Protocol: (§1) The antifungal activity of WF16616 substnace was measured in a 0.5% glucose-containing yeast nitrogen base (YNBD) medium by a microbroth dilution analysis method using a 96-well microtiter plate. This substance was dissolved in methanol, and was diluted to twice in sequence in the microtiter plate using the YNBD medium. The test microorganism was inoculated at a concentration of 1×10^4 cfu/100 μl/well. Candida albicans and Aspergillus fumigatus were incubated in the above-mentioned plate at 37° C. for 22 hours, and Cryptococcus neoformans at 30° C. for 48 hours, respectively. Then, MIC was measured through microscopical observation.

[3] = system: Aspergillus fumigatus FD050; test: Antifungal activity, microbroth dilution in YNBD medium, Aspergillus fumigatus FD050; type: cell-based; conditions: 1×10^4 cfu/100 μl/well, 37° C., 22 hours, 0.5% glucose-containing YNBD, microscopical observation
Protocol: as §1

[4] = system: Cryptococcus neoformans YC203; test: Antifungal activity, microbroth dilution in YNBD medium, Cryptococcus neoformans YC203; type: cell-based; conditions: 1×10^4 cfu/100 μl/well, 30° C., 48 hours, 0.5% glucose-containing YNBD, microscopical observation
Protocol: as §1

[5] = system: Candida albicans FP633; test: Antifungal activity, microbroth dilution in YNBD medium, Candida albicans FP633; type: cell-based; conditions: 1×10^4 cfu/100 μl/well, 37° C., 22 hours, 0.5% glucose-containing YNBD, microscopical observation
Protocol: as §1

CCC(C)CC(C)CCCCCCCCC(=O)NC1CC(O)C(O)NC(=O)C2C(O)C(C)CN2C(=O)C(C(O)CC(N)=O)NC(=O)C(C(O)C(O)c2ccc(O)c(OS(=O)(=O)O)c2)NC(=O)C2CC(O)CN2C(=O)C(C(C)O)NC1=O (stereo not drawn) [WF16616 substance]
dead mice ([1]; five 5-week-old ICR female mice): none of the mice were dead | increase in the weight of mice ([1]; versus unadministered mice): quite the same as that in the weight of unadministered mice | MIC [2]: 0.78 µg/mL (≈ 0.664 µM) | MIC [3]: 0.16 µg/mL (≈ 0.136 µM) | MIC [4]: > 50 µg/mL | MIC [5]: 0.1 µg/mL (≈ 0.0851 µM)
